Data on three compounds can be found in ChEMBL document CHEMBL1201862, “PubChem BioAssay data set” (2004).

Test systems include HCC 2998; CAKI-1; HL-60; RXF 393; HCT-116; SF-268; SN12C; HCT-15; MDA-N; PC-3; SK-OV-3; SW-620; HOP-62; A549; MDA-MB-231; NCI-H522; NCI/ADR-RES; ACHN; M14; SNB-19.
What all share (assay): NCI-60 cell line screen, 48 h

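Compound exposure: 48 hours, 5 concentrations, 96-well plates. GI50 = concentration required for 50% inhibition of growth.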 Active and inactive are the calls of the source. Rule as the data show it: active = GI50 up to about 1.1 µM and inactive = higher.

As for `CC(Oc1ccccc1)C(=O)NN` (stereo not given), the GI50 in the assay on HCC 2998, with CAKI-1, in the assay on HL-60, in the assay on RXF 393, in the assay on HCT-116 and in the assay on SF-268 was > 100 µM (inactive) in each case. The GI50 in the assay on SN12C is > 100 µM (inactive); in the assay with HCT-15, > 100 µM; in the assay on MDA-N, > 100 µM (inactive); in the assay on PC-3, > 100 µM (inactive); with SK-OV-3, > 100 µM (inactive); in the assay on SW-620, > 100 µM (inactive). For the same compound, the GI50 was > 100 µM (inactive) in the assay on HOP-62; > 100 µM (inactive) in the assay with A549; 66.8 µM (inactive) in the assay with MDA-MB-231; 79.3 µM (inactive) in the assay on NCI-H522; > 100 µM (inactive) in the assay on NCI/ADR-RES; > 100 µM (inactive) with ACHN. Also, the GI50 in the assay on M14 and with SNB-19 was > 100 µM (inactive) throughout.

`CCC(C#N)(c1ccccc1)N(CCc1ccccc1)C(=O)c1ccccc1` (stereo not given): the GI50 in the assay with HCC 2998 was 54.7 µM (inactive); in the assay on CAKI-1, > 100 µM (inactive); in the assay with HL-60, > 100 µM (inactive); with RXF 393, 24.5 µM (inactive); in the assay with HCT-116, 24.8 µM (inactive); in the assay on SF-268, 88.5 µM (inactive). Besides, the GI50 in the assay with SN12C was 85.5 µM (inactive); with HCT-15, > 100 µM; in the assay on MDA-N, > 100 µM (inactive); in the assay with PC-3, > 100 µM (inactive); in the assay with SK-OV-3, 32.8 µM (inactive); in the assay on SW-620, > 100 µM (inactive). For the same compound, the GI50 is 15.9 µM (inactive) in the assay on HOP-62; 77.1 µM (inactive) with A549; 13.5 µM (inactive) in the assay on MDA-MB-231; > 100 µM (inactive) in the assay with NCI-H522; 54.3 µM (inactive) in the assay on NCI/ADR-RES; 51.2 µM (inactive) in the assay with ACHN. The GI50 is > 100 µM (inactive) in the assay with M14 and 28 µM (inactive) in the assay on SNB-19.

As to `N=C(N)n1nc2c(c1O)CCCC2`, the GI50 with HCC 2998, in the assay on CAKI-1, with HL-60, with RXF 393, with HCT-116 and in the assay on SF-268 was > 100 µM (inactive) in each case. Further, the GI50 in the assay with SN12C is > 100 µM (inactive); with HCT-15, > 100 µM; in the assay with MDA-N it was > 100 µM (inactive); in the assay with PC-3, > 100 µM (inactive); in the assay with SK-OV-3, > 100 µM (inactive); in the assay with SW-620, > 100 µM (inactive). Besides, the GI50 with HOP-62, in the assay with A549, with MDA-MB-231, in the assay with NCI-H522, in the assay on NCI/ADR-RES and with ACHN was > 100 µM (inactive) in each case. Besides, the GI50 in the assay with M14 and in the assay on SNB-19 was > 100 µM (inactive) throughout.
